Reference: patent publication US12180466B2, “Plant tissue collection, RNA extraction and genetic analysis” (WINFIELD SOLUTIONS, LLC, priority 2018, dated 2024)

How the values were obtained:
maize seeds [1] = experiment: Germination of treated maize seeds and harvestability of tissue at timepoints (Maize Trial 1); format: in vivo; details: for non-harvestable seeds (did not germinate): 120-hour timepoint, subgroup 4, radicle and coleoptile
Protocol: This study applied 5 different PGRs to separate treatment groups each comprised of 30 maize seeds. A negative control group of 30 maize seeds was exposed to a control solution devoid of any PGRs. The ability to germinate the seeds and harvest the desired tissues from the seeds and nascent seedlings at 5 timepoints was evaluated, and the total RNA extracted, sequenced and analyzed. […] Ten plates were prepared for each of the 6 groups evaluated (5 treatment groups+1 control group). Each test group included 5 subgroups, each subgroup corresponding to 1 of the 5 harvesting timepoints. Replicates of each subgroup were prepared, such that each of the 5 subgroups of seeds occupied two plates. Group 1 served as the untreated negative control group. Group 2 was treated with a first PGR composition (“PGR 1”) that includes active components containing 0.09 wt % cytokinin (kinetin), 0.03 wt % GA, and 0.045 wt % IBA. Group 3 was treated with kinetin. Group 4 was treated with GA. Group 5 was treated with IBA. Group 6 was treated with a second PGR composition (“PGR 2”) that includes active components containing 0.11 wt % CPPA and 0.01 wt % cytokinin (kinetin). Stock solutions of the treatments were prepared, each including equal amounts of propylene glycol, which was used to dissolve the kinetin. The amount of each treatment substance applied per seed varied between, but not within, the treatment groups. As shown below in Table 1, the control group was untreated. Each seed within group 2 was treated with 1.2 μL of the PGR 1. Each seed within group 3 was treated with 1.14 μg of kinetin. Each seed within group 4 was treated with 0.572 μg of GA. Each seed within group 5 was treated with 0.381 μg of IBA. Each seed within group 6 was treated with 1.7 μL of PGR 2. The seeds in each group were incubated at 15.5° C. and harvested at 5 timepoints. The first subgroup within each group was harvested after 12 hours of incubation, the second subgroup after 24 hours, the third subgroup after 96 hours, the fourth subgroup after 120 hours, and the fifth subgroup after 144 hours. […]

maize seeds [2] = experiment: Whole-genome RNA sequencing of tissue from PGR-treated germinating maize seeds/seedlings, gene expression relative to control; format: in vivo; details: radicle, 144-hour timepoint
Protocol: This study applied 5 different PGRs to separate treatment groups each comprised of 30 maize seeds. A negative control group of 30 maize seeds was exposed to a control solution devoid of any PGRs. The ability to germinate the seeds and harvest the desired tissues from the seeds and nascent seedlings at 5 timepoints was evaluated, and the total RNA extracted, sequenced and analyzed. […] Ten plates were prepared for each of the 6 groups evaluated (5 treatment groups+1 control group). Each test group included 5 subgroups, each subgroup corresponding to 1 of the 5 harvesting timepoints. Replicates of each subgroup were prepared, such that each of the 5 subgroups of seeds occupied two plates. Group 1 served as the untreated negative control group. Group 2 was treated with a first PGR composition (“PGR 1”) that includes active components containing 0.09 wt % cytokinin (kinetin), 0.03 wt % GA, and 0.045 wt % IBA. Group 3 was treated with kinetin. Group 4 was treated with GA. Group 5 was treated with IBA. […] Expression data for 39,460 different genes was obtained and analyzed to identify which genes were differentially expressed relative to control samples at the timepoints and tissue types sampled and in response to the different treatments applied to each test group.

| Structure (SMILES) | seeds that did not germinate (maize seeds [1]; 144-hour timepoint, subgroup 5) [seeds] | expression of gene coding for phosphopantothenate-cysteine ligase protein (maize seeds [2]) | non-harvestable seeds (did not germinate) (maize seeds [1]) [seeds] |
| --- | --- | --- | --- |
| O=C(O)CCCc1c[nH]c2ccccc12 [IBA, indole-3-butyric acid] | 1 | increased expression |  |
| c1coc(CNc2ncnc3[nH]cnc23)c1 [group 3, kinetin] |  |  | 2 |
| C=C1C[C@]23C[C@@]1(O)CC[C@H]2[C@@]12C=C[C@H](O)[C@@](C)(C(=O)O1)[C@H]2[C@@H]3C(=O)O [group 4, gibberellic acid] |  |  | 1 |
